Test results taken from ChEMBL document CHEMBL2074173, “Organic anion-transporting polypeptide B (OATP-B) and its functional comparison with three other OATPs of human liver” (Gastroenterology, 2001).
Where a SMILES comes first, the peptide text is derived from it. [ ]: non-standard residue; d: D form.

T1: Solute carrier organic anion transporter family member 1B3 (Homo sapiens, UniProt Q9NPD5)
T1 sequence (Q9NPD5 whole entry): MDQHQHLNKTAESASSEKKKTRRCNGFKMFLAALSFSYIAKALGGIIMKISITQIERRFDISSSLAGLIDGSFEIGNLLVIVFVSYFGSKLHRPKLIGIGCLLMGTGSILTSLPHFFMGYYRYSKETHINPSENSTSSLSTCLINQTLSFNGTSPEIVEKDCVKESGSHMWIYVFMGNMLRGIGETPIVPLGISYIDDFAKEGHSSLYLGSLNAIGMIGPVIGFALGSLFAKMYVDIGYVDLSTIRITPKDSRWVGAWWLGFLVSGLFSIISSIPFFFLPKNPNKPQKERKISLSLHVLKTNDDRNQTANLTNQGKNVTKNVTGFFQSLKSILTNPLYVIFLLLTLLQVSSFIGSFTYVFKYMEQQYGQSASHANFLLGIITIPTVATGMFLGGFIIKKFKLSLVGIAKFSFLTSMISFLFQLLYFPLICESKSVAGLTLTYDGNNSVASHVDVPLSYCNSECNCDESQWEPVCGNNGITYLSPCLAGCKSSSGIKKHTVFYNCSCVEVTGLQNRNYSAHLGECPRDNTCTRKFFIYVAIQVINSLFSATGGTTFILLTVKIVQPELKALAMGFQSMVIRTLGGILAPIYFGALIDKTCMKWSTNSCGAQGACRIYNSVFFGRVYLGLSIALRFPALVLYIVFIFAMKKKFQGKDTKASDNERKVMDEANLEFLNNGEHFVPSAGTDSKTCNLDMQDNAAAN

T2: Solute carrier organic anion transporter family member 2B1 (Homo sapiens, UniProt O94956)
T2 sequence (O94956 whole entry): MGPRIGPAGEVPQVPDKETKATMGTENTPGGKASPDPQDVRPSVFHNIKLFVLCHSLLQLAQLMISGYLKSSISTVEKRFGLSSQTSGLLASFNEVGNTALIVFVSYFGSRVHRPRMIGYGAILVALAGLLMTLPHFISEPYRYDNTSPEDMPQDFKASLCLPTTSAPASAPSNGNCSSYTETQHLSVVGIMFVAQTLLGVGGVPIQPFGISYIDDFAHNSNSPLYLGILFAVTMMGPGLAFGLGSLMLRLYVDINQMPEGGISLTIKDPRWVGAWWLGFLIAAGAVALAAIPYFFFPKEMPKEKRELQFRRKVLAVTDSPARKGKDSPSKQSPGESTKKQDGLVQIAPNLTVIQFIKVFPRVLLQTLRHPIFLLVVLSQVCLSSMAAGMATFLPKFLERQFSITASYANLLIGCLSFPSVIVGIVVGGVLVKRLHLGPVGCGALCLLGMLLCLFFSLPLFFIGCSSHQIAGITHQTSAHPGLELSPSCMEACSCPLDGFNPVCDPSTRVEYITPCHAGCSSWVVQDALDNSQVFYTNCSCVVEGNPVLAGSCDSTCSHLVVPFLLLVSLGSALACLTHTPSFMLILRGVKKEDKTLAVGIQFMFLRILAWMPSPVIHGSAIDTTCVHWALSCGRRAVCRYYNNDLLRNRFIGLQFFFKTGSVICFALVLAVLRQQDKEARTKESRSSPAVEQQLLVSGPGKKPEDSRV

T3: Solute carrier organic anion transporter family member 1A2 (Homo sapiens, UniProt P46721)
T3 sequence (P46721 whole entry): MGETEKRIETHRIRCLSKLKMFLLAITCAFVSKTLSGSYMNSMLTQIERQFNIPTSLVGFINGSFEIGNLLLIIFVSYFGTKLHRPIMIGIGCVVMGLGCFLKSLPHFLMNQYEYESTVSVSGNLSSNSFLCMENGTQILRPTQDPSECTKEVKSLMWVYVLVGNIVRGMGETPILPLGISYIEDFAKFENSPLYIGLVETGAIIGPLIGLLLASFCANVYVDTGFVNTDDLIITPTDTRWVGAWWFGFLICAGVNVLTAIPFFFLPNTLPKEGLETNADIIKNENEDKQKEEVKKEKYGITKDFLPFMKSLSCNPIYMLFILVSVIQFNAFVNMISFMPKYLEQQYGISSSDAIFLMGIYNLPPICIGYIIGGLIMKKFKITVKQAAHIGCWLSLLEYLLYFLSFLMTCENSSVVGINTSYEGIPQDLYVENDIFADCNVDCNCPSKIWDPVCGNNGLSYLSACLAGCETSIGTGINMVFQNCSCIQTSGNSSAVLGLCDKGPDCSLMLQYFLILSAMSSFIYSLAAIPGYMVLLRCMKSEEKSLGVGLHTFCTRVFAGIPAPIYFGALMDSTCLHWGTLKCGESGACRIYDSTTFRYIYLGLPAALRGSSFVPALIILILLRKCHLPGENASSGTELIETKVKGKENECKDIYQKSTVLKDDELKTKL

T4: Solute carrier organic anion transporter family member 1B1 (Homo sapiens, UniProt Q9Y6L6)
T4 sequence (Q9Y6L6 whole entry): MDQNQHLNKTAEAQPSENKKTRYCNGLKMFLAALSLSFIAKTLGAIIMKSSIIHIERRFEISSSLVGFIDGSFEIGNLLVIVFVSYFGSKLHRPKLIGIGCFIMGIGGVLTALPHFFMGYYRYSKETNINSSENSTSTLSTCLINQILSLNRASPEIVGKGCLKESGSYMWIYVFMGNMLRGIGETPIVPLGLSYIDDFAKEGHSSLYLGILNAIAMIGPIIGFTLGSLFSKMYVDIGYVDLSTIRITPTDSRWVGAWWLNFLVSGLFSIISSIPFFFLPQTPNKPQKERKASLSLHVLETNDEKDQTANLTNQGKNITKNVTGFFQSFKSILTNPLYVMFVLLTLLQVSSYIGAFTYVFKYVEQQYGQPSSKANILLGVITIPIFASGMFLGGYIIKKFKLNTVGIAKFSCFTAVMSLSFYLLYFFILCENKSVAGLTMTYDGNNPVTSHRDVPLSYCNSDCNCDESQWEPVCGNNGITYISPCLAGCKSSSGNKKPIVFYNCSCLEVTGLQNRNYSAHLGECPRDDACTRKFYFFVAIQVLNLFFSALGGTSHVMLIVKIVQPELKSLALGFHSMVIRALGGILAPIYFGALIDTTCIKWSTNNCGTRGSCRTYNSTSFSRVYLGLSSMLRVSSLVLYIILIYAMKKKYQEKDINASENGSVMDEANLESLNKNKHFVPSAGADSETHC

T5: Solute carrier organic anion transporter family member 1B3 (OATP1B3, SLCO1B3) (Homo sapiens, UniProt Q9NPD5)
T5 sequence (Q9NPD5 whole entry): T1 sequence (Q9NPD5 whole entry)

B1: Solute carrier organic anion transporter family member 1B1 (Homo sapiens) (protein)
chain: T4 sequence (Q9Y6L6 whole entry)
B2: Solute carrier organic anion transporter family member 2B1 (Homo sapiens) (protein)
chain: T2 sequence (O94956 whole entry)

How the values were obtained:
[1] = molecular target: T1, Solute carrier organic anion transporter family member 1B3; experiment: (§1) TP_TRANSPORTER: uptake in Xenopus laevis oocytes; assay type: functional, cell-based, Oocyte; details: oocyte
[2] = molecular target: T2, Solute carrier organic anion transporter family member 2B1; experiment: as §1; assay type: functional, cell-based; details: oocyte
[3] = molecular target: T3, Solute carrier organic anion transporter family member 1A2; experiment: as §1; assay type: functional, cell-based; details: oocyte
[4] = molecular target: T4, Solute carrier organic anion transporter family member 1B1; experiment: as §1; assay type: functional, cell-based; details: oocyte
[5] = molecular target: T5, Solute carrier organic anion transporter family member 1B3 (OATP1B3, SLCO1B3); experiment: as §1; assay type: functional, cell-based, Oocyte; details: Xenopus laevis oocytes expressing the transporter
[6] = substrate: O=C1OC(c2ccc(O)c(S(=O)(=O)O)c2)(c2ccc(O)c(S(=O)(=O)O)c2)c2c(Br)c(Br)c(Br)c(Br)c21; experiment: as §1; assay type: functional, cell-based, Oocyte

Molecule | Activity [1] | Activity [3] | other results
C[C@]12CC[C@H](OS(=O)(=O)O)CC1=CC[C@@H]1[C@@H]2CC[C@]2(C)C(=O)CC[C@@H]12 [PRASTERONE SULFURIC ACID] | substrate [+] |  | Activity [2]: substrate [+]
N[C@@H](Cc1cc(I)c(Oc2cc(I)c(O)c(I)c2)c(I)c1)C(=O)O [LEVOTHYROXINE] | substrate [+] |  | 
N[C@@H](Cc1cc(I)c(Oc2ccc(O)c(I)c2)c(I)c1)C(=O)O [LIOTHYRONINE] | substrate [+] |  | 
C[C@H](CCC(=O)NCC(=O)O)[C@H]1CC[C@H]2[C@@H]3[C@H](O)C[C@@H]4C[C@H](O)CC[C@]4(C)[C@H]3C[C@H](O)[C@]12C [GLYCOCHOLIC ACID] | substrate [+] | substrate [+] | Activity [4]: substrate [+]
C[C@]12CC[C@@H]3c4ccc(O)cc4CC[C@H]3[C@@H]1CC[C@@H]2O[C@@H]1O[C@H](C(=O)O)[C@@H](O)[C@H](O)[C@H]1O [ESTRADIOL 17B GLUCURONIDE] | substrate [+] | substrate [+] | 
CCCCC[C@H](O)/C=C/[C@H]1[C@H](O)CC(=O)[C@@H]1C/C=C\CCCC(=O)O [DINOPROSTONE] |  | substrate [+] | 
CC(C)[C@H](NC(=O)[C@H](CCC(=O)O)NC(=O)[C@H](Cc1ccccc1)NC(=O)[C@@H](C)NC(=O)[C@@H](N)Cc1ccc(O)cc1)C(=O)N[C@H](C(=O)NCC(N)=O)C(C)C [DELTORPHIN II] | substrate [+] |  | 
CC(C)C[C@@H]1NC(=O)[C@@H](C(C)C)NC(=O)[C@@H]2CCCN2C(=O)[C@@H](CC(=O)O)NC(=O)[C@@H](Cc2c[nH]c3ccccc23)NC1=O [BQ-123] (cyclo(L[dW][dD]P[dV])) | substrate [+] | substrate [+] | Activity [4]: substrate [+]
C[C@@H]1O[C@@H](O[C@H]2C[C@@H](O)[C@]3(CO)[C@H]4[C@H](O)C[C@]5(C)[C@@H](C6=CC(=O)OC6)CC[C@]5(O)[C@@H]4CC[C@]3(O)C2)[C@H](O)[C@H](O)[C@H]1O [OUABAIN] | substrate [+] | substrate [+] | 
CC1(C)SSC(C)(C)[C@@H](NC(=O)[C@@H](N)Cc2ccc(O)cc2)C(=O)NCC(=O)N[C@@H](Cc2ccccc2)C(=O)N[C@H]1C(=O)O | substrate [+] |  | Activity [4]: substrate [+]
O=C1OC(c2ccc(O)c(S(=O)(=O)O)c2)(c2ccc(O)c(S(=O)(=O)O)c2)c2c(Br)c(Br)c(Br)c(Br)c21 [SULFOBROMOPHTHALEIN SODIUM] |  |  | Km [5]: 0.4 µM
C[C@]12CC[C@@H]3c4ccc(OS(=O)(=O)O)cc4CC[C@H]3[C@@H]1CCC2=O [ESTRONE SULFURIC ACID] | substrate [+] |  | Activity [2]: substrate [+]
CCCCC/C=C\C\C=C/C=C/C=C/[C@@H](SC[C@@H](NC(=O)CC[C@H](N)C(=O)O)C(=O)NCC(=O)O)[C@@H](O)CCCC(=O)O [LEUKOTRIEN C4] | substrate [+] |  | 
B1 |  |  | Km [6]: 0.3 µM
B2 |  |  | Km [6]: 0.7 µM
